Measurements published in ChEMBL document CHEMBL1201862, “PubChem BioAssay data set” (2004).
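The compound was tested at five concentrations on cells cultured in 96-well plates, with a 48-hour exposure period. Here, GI50 denotes the concentration required for 50% inhibition of growth.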 Calls of active or inactive are those of the source. No stated cut-off is given here; in the data, active = GI50 up to about 1.1 µM and inactive = higher.

How the values were obtained:
Test in all cases: inhibition of tumour cell growth, NCI panel, 48 h
[1] = system: CCRF-CEM
[2] = system: A498
[3] = system: NCI-H460
[4] = system: HOP-92
[5] = system: HCT-116
[6] = system: MCF7
[7] = system: OVCAR-8
[8] = system: Hs-578T
[9] = system: SR
[10] = system: SNB-19
[11] = system: HCC 2998
[12] = system: MOLT-4
[13] = system: NCI-H522
[14] = system: A549
[15] = system: OVCAR-4
[16] = system: OVCAR-5
[17] = system: NCI-H23
[18] = system: LOX IMVI
[19] = system: UACC-62

Measured: GI50

CO[C@@H]1C[C@H]2[C@@H]3CC[C@H]([C@@H](C)CO)[C@@]3(C)CC[C@@H]2[C@@]2(C)CC[C@H]3C[C@]312
inactive: [1] 40.2 µM | [2] > 100 µM | [3] 20.9 µM | [4] 18.9 µM | [5] 34.4 µM | [6] 16.2 µM | [7] 31 µM | [8] 27.2 µM | [9] 31.6 µM | [10] 53.6 µM | [11] 33.1 µM | [12] 31.1 µM | [13] 19.7 µM | [14] 36 µM | [15] 33.2 µM | [16] > 100 µM | [17] 40.7 µM | [18] 19.3 µM

Cc1c2ccccc2c(C2C3C(=O)N(c4cccc5ccccc45)C(=O)C3ON2Cc2ccc(CC(N)=O)cc2)c2ccccc12 (stereo not given)
inactive: [1] 14.7 µM | [2] 35.6 µM | [3] 13.5 µM | [4] 15.6 µM | [5] 18.2 µM | [6] 14.8 µM | [7] 22.4 µM | [8] 27.6 µM | [9] 14 µM | [10] 19.6 µM | [12] 8.24 µM | [19] 14.4 µM | [13] 18.9 µM | [14] 16.3 µM | [15] 19 µM | [16] 24.9 µM | [17] 25.1 µM | [18] 18.9 µM

Oc1ccc[nH]c1=[Se]
inactive: [1] 35.3 µM | [3] 41.8 µM | [4] > 100 µM | [5] 33.9 µM | [6] 65.5 µM | [7] 37.2 µM | [8] > 100 µM | [9] 36.3 µM | [10] 85.9 µM | [12] > 100 µM | [19] > 100 µM | [13] 29.6 µM | [14] 32.9 µM | [16] 57.1 µM | [17] 46.2 µM | [18] 64.6 µM

O=C(CP(c1ccccc1)c1ccccc1)c1cccc(C(=O)CP(c2ccccc2)c2ccccc2)c1
inactive: [1] 6.76 µM | [3] 19.7 µM | [5] 36.8 µM | [6] 17.9 µM | [7] 89.7 µM | [8] 62.7 µM | [9] 15.7 µM | [10] 43.8 µM | [11] 74.1 µM | [12] 6.75 µM | [19] 78.3 µM | [14] 15.6 µM | [15] 26.1 µM | [16] > 100 µM

CC1(c2ccccc2)CCN(C2CC2)CO1 (stereo not given)
inactive: [1] 32.4 µM | [3] 14.9 µM | [5] 19.9 µM | [6] 16.2 µM | [7] 68.1 µM | [8] 19.4 µM | [9] 25.5 µM | [10] > 100 µM | [11] 17.1 µM | [12] 18.3 µM | [19] 18.1 µM | [14] > 100 µM | [15] 18.8 µM | [16] 17.5 µM | [17] 33 µM | [18] 18 µM

Cc1csc(CP(=O)(OC(C)C)OC(C)C)n1
inactive: [2] > 100 µM | [3] > 100 µM | [4] > 100 µM | [5] > 100 µM | [6] > 100 µM | [7] > 100 µM | [8] > 100 µM | [9] > 100 µM | [10] > 100 µM | [11] > 100 µM | [12] > 100 µM | [13] > 100 µM | [14] > 100 µM | [15] > 100 µM | [16] > 100 µM | [17] > 100 µM | [18] > 100 µM

Cc1cc(NS(=O)(=O)c2ccc(NC(NC(=O)OC(C)C)(C(F)(F)F)C(F)(F)F)cc2)nc(C)n1
inactive: [1] > 100 µM | [2] > 100 µM | [3] > 100 µM | [4] > 100 µM | [5] > 100 µM | [6] > 100 µM | [7] > 100 µM | [8] > 100 µM | [9] > 100 µM | [10] > 100 µM | [11] > 100 µM | [12] > 100 µM | [19] > 100 µM | [14] > 100 µM | [15] > 100 µM | [16] > 100 µM | [17] > 100 µM | [18] > 100 µM

COc1cc(/C=C2\N=C(c3ccccc3)N(c3ccc4c(c3)Sc3cc(N5C(=O)/C(=C/c6cc(OC)c(OC)c(OC)c6)N=C5c5ccccc5)ccc3N4)C2=O)cc(OC)c1OC
inactive: [1] 22 µM | [2] 20.7 µM | [3] 31.3 µM | [4] 18.8 µM | [5] 42 µM | [6] 21 µM | [7] 18.5 µM | [8] 21.8 µM | [10] 21.2 µM | [11] 21.2 µM | [12] 37.2 µM | [19] 16.9 µM | [13] 17.1 µM | [14] 37.6 µM | [15] 18.9 µM | [16] 20.6 µM | [17] 19.3 µM | [18] 22.4 µM

Cc1ccccc1S(=O)(=O)Nn1cnc2ccc(S(=O)(=O)Nc3ccc(Cl)cc3)cc2c1=O
inactive: [1] > 100 µM | [3] > 100 µM | [4] > 100 µM | [5] > 100 µM | [6] > 100 µM | [7] > 100 µM | [8] 28.8 µM | [9] > 100 µM | [10] > 100 µM | [11] > 100 µM | [12] > 100 µM | [19] 27.5 µM | [13] > 100 µM | [14] > 100 µM | [15] > 100 µM | [16] > 100 µM | [17] 60.4 µM | [18] > 100 µM

COC(=O)c1nn2ccc3ccccc3c2c1C(=O)OC
inactive: [2] 22.5 µM | [3] > 100 µM | [4] 96.2 µM | [5] 65.9 µM | [6] > 100 µM | [7] > 100 µM | [8] > 100 µM | [9] 41.1 µM | [10] > 100 µM | [12] 39.9 µM | [19] 36.6 µM | [13] > 100 µM | [14] > 100 µM | [15] > 100 µM | [16] > 100 µM | [17] > 100 µM | [18] 83.6 µM

Cc1ccc(C(=O)Nc2ccc(S(=O)(=O)O)c3cc(S(=O)(=O)O)cc(S(=O)(=O)O)c23)cc1NC(=O)c1cccc(N)c1
inactive: [1] > 100 µM | [2] > 100 µM | [3] > 100 µM | [6] > 100 µM | [7] > 100 µM | [8] > 100 µM | [9] > 100 µM | [10] > 100 µM | [11] > 100 µM | [12] > 100 µM | [19] > 100 µM | [13] > 100 µM | [14] > 100 µM | [15] > 100 µM | [16] > 100 µM | [17] > 100 µM

C=CC[C@]12C=C(OC)[C@@H](O)[C@](OC)(C(c3cc(OC)c4c(c3)OCO4)[C@H]1C)[C@H]2OC(C)=O (stereo not given in full)
inactive: [1] > 100 µM | [2] > 100 µM | [3] > 100 µM | [4] 83.6 µM | [5] > 100 µM | [6] > 100 µM | [7] > 100 µM | [8] 22.6 µM | [9] > 100 µM | [10] > 100 µM | [11] > 100 µM | [12] 67.5 µM | [19] > 100 µM | [13] > 100 µM | [14] > 100 µM | [15] 69.2 µM | [16] > 100 µM | [17] > 100 µM

CCOC(=O)c1c(-c2ccccc2)nc2ccccc2c1O
inactive: [1] > 10 µM | [2] > 100 µM | [3] > 100 µM | [4] > 100 µM | [5] > 100 µM | [6] > 100 µM | [7] > 100 µM | [8] > 100 µM | [9] > 100 µM | [10] > 100 µM | [11] > 100 µM | [12] > 100 µM | [14] > 100 µM | [15] > 100 µM | [16] > 100 µM | [17] > 100 µM

O=C(O)[C@@H]1C[C@@H](O)CN1
inactive: [1] > 100 µM | [2] > 100 µM | [3] > 100 µM | [4] > 100 µM | [5] > 100 µM | [6] > 100 µM | [7] > 100 µM | [8] > 100 µM | [9] > 100 µM | [10] > 100 µM | [11] > 100 µM | [12] > 100 µM | [19] > 100 µM | [14] > 100 µM | [15] > 100 µM | [16] > 100 µM | [17] > 100 µM | [18] > 100 µM

CS(=O)(=O)c1nc(-c2cc3c(c(S(C)(=O)=O)n2)CCCC3)cc2c1CCCC2
inactive: [1] > 100 µM | [2] > 100 µM | [5] > 100 µM | [6] > 100 µM | [7] > 35.4 µM | [8] 12.4 µM | [9] > 100 µM | [10] > 55.7 µM | [11] > 100 µM | [12] > 100 µM | [19] > 38.4 µM | [13] > 39.8 µM | [14] > 100 µM | [15] > 100 µM | [16] > 100 µM | [17] > 63 µM | [18] > 62.4 µM
